Patent publication US20220370440A1 (Lead Discovery Center GmbH, priority 2018, published 2022)

Key:
EGFR wt = EGFR wt (Homo sapiens, UniProt P00533); experiment: EGFR wt Lance assay; type: biochemical
Experimental: (§1) Inhibition is indicated as […] [nM] (“−”=not measured). Compounds having an activity designated as “A” provided an IC50≤100 nM; compounds having an activity designated as “B” provided an 100 nM<IC50≤500 nM; compounds having an activity designated as “C” provided an 500 nM<IC50≤1000 nM; compounds having an activity designated as “D” provided an 1000 nM<IC50≤100000 nM; and compounds having an activity designated as “E” provided an IC50>10000 nM.

HER2 INS YVMA = target: T1, HER2 INS YVMA (Homo sapiens, UniProt P04626, INS775YVMA); experiment: Lance Kinase Activity Assay, HER2 INS YVMA (Her2 Exon 20 INSYVMA Lance); type: biochemical; settings: biochemical Lance assay
T1 construct: purchased DPF
In short: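 IC50 was fitted to sigmoidal curves of TR-FRET signal (665 and 615 nm emission after 340 nm excitation) from an Eu anti-phospho antibody binding the phosphorylated ULight peptide. The ATP-started reaction ran 1 h at RT and was then quenched with 10 mM EDTA plus antibody for a further 1 h. Compounds were tested as 8-point, 3-fold dilutions.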

H1975 = H1975 CellTiter-Glo; type: cell-based; settings: Homo sapiens, NCI-H1975; 72 h compound incubation; read-out: H1975 CTG IC50
In short: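 In this viability format, compound-treated cells sit 72 h at 37° C. before ATP content is quantified by luminescence, and IC50 is taken from the fitted dose-response curve.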

[1] = target: Her2 Exon 20 INSYVMA Ba/F3 (Homo sapiens, UniProt P04626, DUP772-775, cells depend on it); experiment: Her2 Exon 20 INSYVMA Ba/F3 CellTiter-Glo; type: cell-based; settings: CellTiter-Glo, 72 h, read-out: Her2 Exon 20 INSYVMA Ba/F3 CTG IC50
In short: (§2)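 Seed Ba/F3 cells; 24 h, 37 °C/5% CO2. Add cpds in DMSO, multiple concs; 72 h. CellTiter-Glo, 10 min RT, luminescence. IC50 by curve fit. Z′ ≥0.5 from DMSO vs 10 μM staurosporine.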

[2] = target: EGFR Exon 20 INSNPH Ba/F3 (Homo sapiens, UniProt P00533, DUP771-773, cells depend on it); experiment: EGFR Exon 20 INSNPH Ba/F3 CellTiter-Glo; type: cell-based; settings: CellTiter-Glo, 72 h, read-out: EGFR Exon 20 INSNPH Ba/F3 CTG IC50
In short: as §2

EGFR T790ML858R = EGFR T790ML858R (Homo sapiens, UniProt P00533, L858R/T790M); experiment: EGFR T790ML858R Lance assay; type: biochemical
Experimental: as §1

A431 = A431 CellTiter-Glo; type: cell-based; settings: Homo sapiens, A-431; 72 h compound incubation; read-out: A431 CTG IC50
Experimental: 2. Measurement of Cellular Activity
The CellTiter-Glo Luminescent Cell Viability Assay (Promega) is a homogeneous method of determining the number of viable cells in culture. It is based on quantification of ATP, indicating the presence of metabolically active cells. Cells are seeded on day 1 at cell numbers that assure assay linearity and optimal signal intensity. After incubation for 24 h in humidified chambers at 37° C. and 5% CO2, compounds in DMSO are added at different concentrations. Cells are further incubated for 72 h at 37° C. and 5% CO2. Cells treated with the compound vehicle DMSO are used as positive controls and cells treated with 10 μM Staurosporine serve as negative controls. At day 5 the CellTiter Glo Reagent is prepared according to the instructions of the kit (Promega Inc.): Reagent is mixed 1:1 with cell culture medium. Thereon, mixture and assay plates are equilibrated at room temperature for 20 min. Equal volumes of the reagent-medium-mixture is added to the volume of culture medium present in each well. The plates are mixed at ˜200 rpm for 2 minutes on an orbital shaker. The microplates are then incubated at room temperature for 10 minutes for stabilization of the luminescent signal. Following incubation the luminescence is recorded on a Victor microplate reader (Perkin Elmer) using a 200 ms integration time. The data is then analyzed with Excel using the XLFIT Plugin (dose response Fit 205) for IC50-determination. As quality control the Z′-factor is calculated from 16 positive and negative control values. Only assay results showing a Z′-factor ≥0.5 are used for further analysis.
as §1

T1 sequence (P04626 with tags, fused parts or gaps INS775YVMA): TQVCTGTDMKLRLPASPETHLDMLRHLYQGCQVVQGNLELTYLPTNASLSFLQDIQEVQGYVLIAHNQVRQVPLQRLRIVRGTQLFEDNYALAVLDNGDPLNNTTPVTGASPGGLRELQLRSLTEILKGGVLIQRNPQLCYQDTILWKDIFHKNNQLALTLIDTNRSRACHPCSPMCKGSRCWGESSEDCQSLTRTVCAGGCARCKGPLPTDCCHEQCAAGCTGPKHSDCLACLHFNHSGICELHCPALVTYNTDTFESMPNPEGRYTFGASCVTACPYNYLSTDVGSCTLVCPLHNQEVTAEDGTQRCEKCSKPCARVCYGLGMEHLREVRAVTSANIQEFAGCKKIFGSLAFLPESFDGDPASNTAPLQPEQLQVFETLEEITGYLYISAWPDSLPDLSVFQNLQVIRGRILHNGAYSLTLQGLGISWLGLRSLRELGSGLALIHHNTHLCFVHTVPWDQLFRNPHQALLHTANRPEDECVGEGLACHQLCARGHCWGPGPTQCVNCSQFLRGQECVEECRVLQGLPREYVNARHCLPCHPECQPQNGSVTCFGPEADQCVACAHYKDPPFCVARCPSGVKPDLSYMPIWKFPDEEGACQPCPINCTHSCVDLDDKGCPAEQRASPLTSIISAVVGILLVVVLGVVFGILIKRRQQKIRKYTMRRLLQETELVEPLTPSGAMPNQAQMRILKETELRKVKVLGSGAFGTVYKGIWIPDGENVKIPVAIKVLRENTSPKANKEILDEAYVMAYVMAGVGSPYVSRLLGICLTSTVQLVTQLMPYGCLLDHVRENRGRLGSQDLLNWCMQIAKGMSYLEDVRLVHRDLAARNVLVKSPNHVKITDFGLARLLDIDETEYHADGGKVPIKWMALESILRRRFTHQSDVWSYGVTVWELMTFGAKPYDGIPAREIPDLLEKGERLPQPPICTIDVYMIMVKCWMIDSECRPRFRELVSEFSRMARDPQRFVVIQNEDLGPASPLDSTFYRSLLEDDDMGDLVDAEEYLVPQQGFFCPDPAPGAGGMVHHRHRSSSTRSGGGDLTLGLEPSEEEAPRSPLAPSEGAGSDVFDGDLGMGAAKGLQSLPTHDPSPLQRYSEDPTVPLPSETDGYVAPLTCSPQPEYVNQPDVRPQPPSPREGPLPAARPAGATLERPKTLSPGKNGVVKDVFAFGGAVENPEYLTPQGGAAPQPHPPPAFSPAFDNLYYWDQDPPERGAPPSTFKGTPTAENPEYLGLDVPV
Chain of EGFR Exon 20 INSNPH Ba/F3 (P00533 with tags, fused parts or gaps DUP771-773): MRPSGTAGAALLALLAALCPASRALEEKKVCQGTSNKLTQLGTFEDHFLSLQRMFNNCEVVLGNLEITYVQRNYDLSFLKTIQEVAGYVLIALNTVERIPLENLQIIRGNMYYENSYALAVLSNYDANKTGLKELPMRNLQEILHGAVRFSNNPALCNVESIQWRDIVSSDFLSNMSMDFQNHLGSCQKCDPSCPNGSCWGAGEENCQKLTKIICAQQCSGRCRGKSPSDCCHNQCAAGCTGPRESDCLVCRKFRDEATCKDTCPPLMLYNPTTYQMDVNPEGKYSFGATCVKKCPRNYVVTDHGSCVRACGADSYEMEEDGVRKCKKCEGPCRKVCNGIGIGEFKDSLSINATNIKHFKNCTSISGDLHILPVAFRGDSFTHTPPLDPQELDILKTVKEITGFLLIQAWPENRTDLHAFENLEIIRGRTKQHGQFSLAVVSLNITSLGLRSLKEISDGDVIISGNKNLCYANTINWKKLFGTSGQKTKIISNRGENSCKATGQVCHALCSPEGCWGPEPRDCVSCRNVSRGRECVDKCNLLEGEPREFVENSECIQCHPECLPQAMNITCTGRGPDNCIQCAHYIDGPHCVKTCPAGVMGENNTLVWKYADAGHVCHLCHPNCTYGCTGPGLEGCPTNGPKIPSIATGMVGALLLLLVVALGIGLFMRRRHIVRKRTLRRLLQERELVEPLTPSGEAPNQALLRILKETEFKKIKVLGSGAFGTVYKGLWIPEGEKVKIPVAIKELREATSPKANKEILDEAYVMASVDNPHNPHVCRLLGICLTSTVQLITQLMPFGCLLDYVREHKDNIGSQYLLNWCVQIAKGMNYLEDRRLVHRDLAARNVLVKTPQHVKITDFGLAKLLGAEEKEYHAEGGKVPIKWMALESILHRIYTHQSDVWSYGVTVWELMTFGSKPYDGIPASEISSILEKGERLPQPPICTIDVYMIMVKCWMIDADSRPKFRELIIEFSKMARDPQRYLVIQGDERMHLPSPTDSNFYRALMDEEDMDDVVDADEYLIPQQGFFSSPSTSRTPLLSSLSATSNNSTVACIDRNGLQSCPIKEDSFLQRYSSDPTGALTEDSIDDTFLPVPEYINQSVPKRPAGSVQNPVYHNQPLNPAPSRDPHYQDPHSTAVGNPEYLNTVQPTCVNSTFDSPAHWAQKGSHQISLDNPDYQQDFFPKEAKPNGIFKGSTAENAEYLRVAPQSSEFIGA
Chain of EGFR T790ML858R (P00533 25-1210 T790M/L858R): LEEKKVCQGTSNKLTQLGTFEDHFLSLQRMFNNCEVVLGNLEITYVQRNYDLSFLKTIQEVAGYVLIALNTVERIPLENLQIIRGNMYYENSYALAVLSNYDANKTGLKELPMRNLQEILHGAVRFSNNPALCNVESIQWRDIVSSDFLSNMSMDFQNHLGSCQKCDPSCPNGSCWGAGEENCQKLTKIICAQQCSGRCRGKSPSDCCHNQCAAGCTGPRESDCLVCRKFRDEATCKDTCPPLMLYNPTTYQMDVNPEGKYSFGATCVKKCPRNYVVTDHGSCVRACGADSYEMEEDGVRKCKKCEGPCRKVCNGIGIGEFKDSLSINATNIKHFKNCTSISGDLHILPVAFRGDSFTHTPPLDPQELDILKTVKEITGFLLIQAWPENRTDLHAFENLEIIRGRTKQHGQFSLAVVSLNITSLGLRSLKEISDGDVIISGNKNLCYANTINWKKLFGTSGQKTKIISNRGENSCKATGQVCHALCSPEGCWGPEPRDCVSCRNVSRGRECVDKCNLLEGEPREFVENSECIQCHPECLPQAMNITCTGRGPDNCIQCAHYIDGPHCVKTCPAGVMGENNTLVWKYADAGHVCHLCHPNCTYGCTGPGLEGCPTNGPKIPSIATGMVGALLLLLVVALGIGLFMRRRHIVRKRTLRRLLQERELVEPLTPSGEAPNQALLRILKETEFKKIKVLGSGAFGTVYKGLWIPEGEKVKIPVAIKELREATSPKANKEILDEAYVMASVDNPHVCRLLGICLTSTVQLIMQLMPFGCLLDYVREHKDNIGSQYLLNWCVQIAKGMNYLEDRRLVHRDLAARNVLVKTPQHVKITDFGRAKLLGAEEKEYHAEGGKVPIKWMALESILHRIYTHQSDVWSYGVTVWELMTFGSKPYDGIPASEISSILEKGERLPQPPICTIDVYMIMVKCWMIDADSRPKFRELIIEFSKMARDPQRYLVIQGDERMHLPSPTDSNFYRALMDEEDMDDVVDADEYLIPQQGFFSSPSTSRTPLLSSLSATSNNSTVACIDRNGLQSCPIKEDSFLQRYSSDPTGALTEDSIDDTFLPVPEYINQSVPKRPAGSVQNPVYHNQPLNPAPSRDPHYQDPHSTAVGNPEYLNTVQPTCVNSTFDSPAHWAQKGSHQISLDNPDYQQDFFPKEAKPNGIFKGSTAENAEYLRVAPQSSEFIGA
Chain of EGFR wt (P00533 25-1210): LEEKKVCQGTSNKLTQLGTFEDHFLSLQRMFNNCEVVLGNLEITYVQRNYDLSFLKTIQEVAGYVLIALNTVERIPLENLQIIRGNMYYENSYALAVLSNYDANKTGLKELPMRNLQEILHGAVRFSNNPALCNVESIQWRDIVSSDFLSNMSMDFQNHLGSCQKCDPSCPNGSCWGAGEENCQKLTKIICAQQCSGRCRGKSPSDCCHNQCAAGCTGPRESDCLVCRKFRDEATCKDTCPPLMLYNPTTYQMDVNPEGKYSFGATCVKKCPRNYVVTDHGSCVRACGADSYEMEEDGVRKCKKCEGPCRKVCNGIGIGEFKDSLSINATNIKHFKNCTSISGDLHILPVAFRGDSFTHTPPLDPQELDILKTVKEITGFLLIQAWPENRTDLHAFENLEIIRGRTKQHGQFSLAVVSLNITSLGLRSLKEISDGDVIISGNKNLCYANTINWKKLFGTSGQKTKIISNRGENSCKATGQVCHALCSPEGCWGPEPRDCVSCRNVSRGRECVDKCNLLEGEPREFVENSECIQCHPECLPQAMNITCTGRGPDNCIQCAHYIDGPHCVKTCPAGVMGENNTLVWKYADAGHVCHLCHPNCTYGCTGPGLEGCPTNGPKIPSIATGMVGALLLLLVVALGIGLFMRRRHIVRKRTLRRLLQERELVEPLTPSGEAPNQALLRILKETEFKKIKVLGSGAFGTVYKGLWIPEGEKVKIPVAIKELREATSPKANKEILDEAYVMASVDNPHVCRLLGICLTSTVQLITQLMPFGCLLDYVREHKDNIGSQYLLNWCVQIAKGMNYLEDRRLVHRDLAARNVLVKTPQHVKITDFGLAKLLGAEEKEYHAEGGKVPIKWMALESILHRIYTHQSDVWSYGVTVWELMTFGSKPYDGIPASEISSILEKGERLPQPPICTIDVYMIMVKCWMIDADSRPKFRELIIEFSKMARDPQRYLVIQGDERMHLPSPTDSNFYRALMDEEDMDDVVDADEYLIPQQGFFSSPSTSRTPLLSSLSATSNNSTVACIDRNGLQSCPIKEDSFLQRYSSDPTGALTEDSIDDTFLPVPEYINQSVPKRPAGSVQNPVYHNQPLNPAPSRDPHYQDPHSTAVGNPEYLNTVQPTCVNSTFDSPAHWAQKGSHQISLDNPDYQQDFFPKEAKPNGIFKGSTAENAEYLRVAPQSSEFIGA

SMILES: C=CC(=O)Nc1cc(-c2c(-c3ccc(N4CCN(C)CC4)cc3)[nH]c3ncc(NC(C)=O)cc23)ccc1C [Example 201, N-(5-(5-acetamido-2-(4-(4-methylpiperazin-1-yl)phenyl)-1H-pyrrolo[2,3-b]pyridin-3-yl)-2-methylphenyl)acrylamide]
- IC50 (EGFR wt): ≤ 100 nM
- IC50 (HER2 INS YVMA): ≤ 100 nM
- IC50 (H1975): 1000 to 100000 nM
- GI50 [1]: 1000 to 10000 nM
- GI50 [2]: 1000 to 10000 nM
- IC50 (EGFR T790ML858R): ≤ 100 nM
- IC50 (A431): 1000 to 100000 nM

SMILES: C=CC(=O)Nc1cc(-c2c(-c3ccc(N4CCOCC4)nc3)[nH]c3ncc(C(=O)OC(C)C)cc23)ccc1C [Example 171, isopropyl 3-(3-acrylamido-4-methylphenyl)-2-(6-morpholinopyridin-3-yl)-1H-pyrrolo[2,3-b]pyridine-5-carboxylate]
- IC50 (EGFR wt): ≤ 100 nM
- IC50 (HER2 INS YVMA): 1000 to 10000 nM
- IC50 (H1975): 1000 to 100000 nM
- GI50 [1]: 1000 to 10000 nM
- GI50 [2]: 1000 to 10000 nM
- IC50 (EGFR T790ML858R): 500 to 1000 nM
- IC50 (A431): 1000 to 100000 nM

SMILES: C=CC(=O)N1CCOc2ccc(-c3c(-c4cccc(OCCN5CCCC5)c4)[nH]c4nccc(Cl)c34)cc21 [Example 103, 1-(6-(4-chloro-2-(3-(2-(pyrrolidin-1-yl)ethoxy)phenyl)-1H-pyrrolo[2,3-b]pyridin-3-yl)-2H-benzo[b][1,4]oxazin-4(3H)-yl)prop-2-en-1-one]
- IC50 (EGFR wt): ≤ 100 nM
- IC50 (HER2 INS YVMA): ≤ 100 nM
- IC50 (H1975): 100 to 500 nM
- GI50 [1]: 100 to 500 nM
- GI50 [2]: 100 to 500 nM
- IC50 (EGFR T790ML858R): ≤ 100 nM
- IC50 (A431): 500 to 1000 nM

SMILES: Cc1ccc(-c2c(-c3ccc(N4CCN(C)CC4)cc3)[nH]c3nccc(Cl)c23)cc1NC(=O)/C=C/CN(C)C [Example 143, (E)-N-(5-(4-chloro-2-(4-(4-methylpiperazin-1-yl)phenyl)-1H-pyrrolo[2,3-b]pyridin-3-yl)-2-methylphenyl)-4-(dimethylamino)but-2-enamide 2,2,2-trifluoroacetate]
- IC50 (EGFR wt): ≤ 100 nM
- IC50 (HER2 INS YVMA): ≤ 100 nM
- IC50 (H1975): 100 to 500 nM
- GI50 [1]: 100 to 500 nM
- GI50 [2]: 100 to 500 nM
- IC50 (EGFR T790ML858R): ≤ 100 nM
- IC50 (A431): 1000 to 100000 nM

SMILES: C=CC(=O)Nc1cc(-c2c(-c3ccc(N4CCN(C)CC4)nc3)[nH]c3ncc(C(=O)OC(C)C)cc23)ccc1C [Example 163, isopropyl 3-(3-acrylamido-4-methylphenyl)-2-(6-(4-methylpiperazin-1-yl)pyridin-3-yl)-1H-pyrrolo[2,3-b]pyridine-5-carboxylate]
- IC50 (EGFR wt): ≤ 100 nM
- IC50 (HER2 INS YVMA): ≤ 100 nM
- IC50 (H1975): 500 to 1000 nM
- GI50 [1]: 500 to 1000 nM
- GI50 [2]: 500 to 1000 nM
- IC50 (EGFR T790ML858R): ≤ 100 nM
- IC50 (A431): 1000 to 100000 nM

SMILES: C=CC(=O)N1CCc2ccc(-c3c(-c4ccc(CN(C)C)cc4)[nH]c4nccc(OCC)c34)cc21 [Example 106, 1-(6-(2-(4-((dimethylamino)methyl)phenyl)-4-ethoxy-1H-pyrrolo[2,3-b]pyridin-3-yl)indolin-1-yl)prop-2-en-1-one]
- IC50 (EGFR wt): ≤ 100 nM
- IC50 (HER2 INS YVMA): ≤ 100 nM
- IC50 (H1975): ≤ 100 nM
- GI50 [1]: 100 to 500 nM
- GI50 [2]: 100 to 500 nM
- IC50 (EGFR T790ML858R): ≤ 100 nM
- IC50 (A431): 500 to 1000 nM

SMILES: C=CC(=O)Nc1cc(-c2c(-c3ccc(C4CCN(C)CC4)cc3)[nH]c3nccc(Cl)c23)cc(C)c1C [Example 152, N-(5-(4-chloro-2-(4-(1-methylpiperidin-4-yl)phenyl)-1H-pyrrolo[2,3-b]pyridin-3-yl)-2,3-dimethylphenyl)acrylamide]
- IC50 (EGFR wt): ≤ 100 nM
- IC50 (HER2 INS YVMA): ≤ 100 nM
- IC50 (H1975): ≤ 100 nM
- GI50 [1]: 100 to 500 nM
- GI50 [2]: 100 to 500 nM
- IC50 (EGFR T790ML858R): ≤ 100 nM
- IC50 (A431): 500 to 1000 nM

SMILES: C=CC(=O)Nc1cc(-c2c(-c3ccnc(N4CCN(C)CC4)c3)[nH]c3ncc(C(=O)OC(C)C)cc23)cc(F)c1C [Example 180, isopropyl 3-(3-acrylamido-5-fluoro-4-methylphenyl)-2-(2-(4-methylpiperazin-1-yl)pyridin-4-yl)-1H-pyrrolo[2,3-b]pyridine-5-carboxylate]
- IC50 (EGFR wt): ≤ 100 nM
- IC50 (HER2 INS YVMA): ≤ 100 nM
- IC50 (H1975): 500 to 1000 nM
- GI50 [1]: 100 to 500 nM
- GI50 [2]: 100 to 500 nM
- IC50 (EGFR T790ML858R): ≤ 100 nM
- IC50 (A431): 1000 to 100000 nM

SMILES: C=CC(=O)Nc1cc(-c2c(-c3ccc(N4CCN(C)CC4)cc3)[nH]c3ncc(C(=O)NCc4nncn4C)cc23)ccc1C [Example 130, 3-(3-acrylamido-4-methylphenyl)-N-((4-methyl-4H-1,2,4-triazol-3-yl)methyl)-2-(4-(4-methylpiperazin-1-yl)phenyl)-1H-pyrrolo[2,3-b]pyridine-5-carboxamide]
- IC50 (EGFR wt): ≤ 100 nM
- IC50 (HER2 INS YVMA): 100 to 500 nM
- IC50 (H1975): > 10000 nM
- GI50 [1]: > 10000 nM
- GI50 [2]: > 10000 nM
- IC50 (EGFR T790ML858R): 100 to 500 nM
- IC50 (A431): > 10000 nM

SMILES: C=CC(=O)Nc1cc(-c2c(-c3ccc(CN(C)C)cc3)[nH]c3ncc(C(=O)OC(C)C)cc23)ccc1C [Example 151, isopropyl 3-(3-acrylamido-4-methylphenyl)-2-(4-((dimethylamino)methyl)phenyl)-1H-pyrrolo[2,3-b]pyridine-5-carboxylate]
- IC50 (EGFR wt): ≤ 100 nM
- IC50 (HER2 INS YVMA): ≤ 100 nM
- IC50 (H1975): 100 to 500 nM
- GI50 [1]: 100 to 500 nM
- GI50 [2]: 100 to 500 nM
- IC50 (EGFR T790ML858R): ≤ 100 nM
- IC50 (A431): 1000 to 100000 nM

SMILES: C=CC(=O)Nc1cc(-c2c(-c3cccc(OCCCN(C)C)c3)[nH]c3ncc(C(=O)OC(C)C)cc23)ccc1C [Example 183, isopropyl 3-(3-acrylamido-4-methylphenyl)-2-(3-(3-(dimethylamino)propoxy)phenyl)-1H-pyrrolo[2,3-b]pyridine-5-carboxylate]
- IC50 (EGFR wt): ≤ 100 nM
- IC50 (HER2 INS YVMA): ≤ 100 nM
- IC50 (H1975): 100 to 500 nM
- GI50 [1]: 100 to 500 nM
- GI50 [2]: 100 to 500 nM
- IC50 (EGFR T790ML858R): ≤ 100 nM
- IC50 (A431): 1000 to 100000 nM

SMILES: C=CC(=O)Nc1cc(-c2c(-c3cccc(C(=O)NCCCN4CCCC4)c3)[nH]c3nccc(Cl)c23)ccc1C [Example 47, 3-(3-(3-acrylamido-4-methylphenyl)-4-chloro-1H-pyrrolo[2,3-b]pyridin-2-yl)-N-(3-(pyrrolidin-1-yl)propyl)benzamide]
- IC50 (EGFR wt): ≤ 100 nM
- IC50 (HER2 INS YVMA): ≤ 100 nM
- IC50 (H1975): ≤ 100 nM
- GI50 [1]: 1000 to 10000 nM
- GI50 [2]: 1000 to 10000 nM
- IC50 (EGFR T790ML858R): ≤ 100 nM
- IC50 (A431): 500 to 1000 nM

SMILES: C=CC(=O)Nc1cc(-c2c(-c3ccc(N4CCN(C)CC4)cc3)[nH]c3ncc(C(=O)NCc4ccc(F)cc4F)cc23)ccc1C [Example 131, 3-(3-acrylamido-4-methylphenyl)-N-(2,4-difluorobenzyl)-2-(4-(4-methylpiperazin-1-yl)phenyl)-1H-pyrrolo[2,3-b]pyridine-5-carboxamide]
- IC50 (EGFR wt): ≤ 100 nM
- IC50 (HER2 INS YVMA): 100 to 500 nM
- IC50 (H1975): 1000 to 100000 nM
- GI50 [1]: 500 to 1000 nM
- GI50 [2]: 1000 to 10000 nM
- IC50 (EGFR T790ML858R): 500 to 1000 nM
- IC50 (A431): 1000 to 100000 nM

SMILES: C=CC(=O)Nc1cc(-c2c(-c3ccc(N4CCN(C)CC4)cc3)[nH]c3nccc(Cl)c23)cc(C)c1C [Example 150, N-(5-(4-chloro-2-(4-(4-methylpiperazin-1-yl)phenyl)-1H-pyrrolo[2,3-b]pyridin-3-yl)-2,3-dimethylphenyl)acrylamide 2,2,2-trifluoroacetate]
- IC50 (EGFR wt): ≤ 100 nM
- IC50 (HER2 INS YVMA): ≤ 100 nM
- IC50 (H1975): ≤ 100 nM
- GI50 [1]: 500 to 1000 nM
- GI50 [2]: 100 to 500 nM
- IC50 (EGFR T790ML858R): ≤ 100 nM
- IC50 (A431): 500 to 1000 nM
